Measured values as given in patent US8901295B2 (Institut National de la Sante et de la Recherche Medicale …, priority 2009, dated 2014).
Like-named read-outs stand apart in the source and are kept apart here.

What was measured:
[1] = target: Cyclophilin D (CypD) (Homo sapiens, UniProt P30405, K175I); experiment: Cyclophilin PPIase enzymatic assay (chymotrypsin coupled), CypD; type: biochemical
Procedure: The protein was expressed in E. coli strain BL21(DE3). Bacteria were grown in LB medium at 37° C. and induced during 2 h with isopropyl-β-D-thiogalactopyranoside (IPTG) around OD 0.8. Cells were lysed by sonication in a buffer consisting of 50 mM Tris at pH 7.5, 2 mM EDTA and 2 mM β-mercaptoethanol (buffer A). The lysate was centrifuged at 40000 g for 30 min. The supernatant was loaded on a Q-Sepharose and S-Sepharose columns in series equilibrated with buffer A. The S-Sepharose column was washed with equilibrium buffer and bound proteins were eluted with a linear gradient from 0 to 1M NaCl.
(§1) The reaction was initiated by adding 20 μL of 3.2 mM peptide substrate (Suc-Ala-Ala-cis-Pro-Phe-pNA) in LiCl/TFE solution with rapid inversion. […] The final concentration of LiCl in the assay was 20 mM; TFE was present at a concentration of 4% (v/v). Absorbance readings were collected every 1 s by spectrophotometer. The inhibition assays of compounds were performed in the same manner as mentioned above. A 5 μL aliquot of the compounds in DMSO was added to the cyclophilin solution in the assay buffer. The assay was started by the addition of the substrate. Cyclosporine A was used as control in all measurement. The percentage inhibition of cyclophilin PPiase activity were calculated from slopes and values obtained represent an average of at least two independent measurements.

[2] = target: Cyclophilin B (CypB) (Homo sapiens (Human), UniProt P23284); experiment: Cyclophilin PPIase enzymatic assay (chymotrypsin coupled), CypB; type: biochemical; conditions: for IC50: CypB; for Inhibition (%): activity test at 100 μM on CypB
Cyclophilin B (CypB), sequence (P23284 34-216): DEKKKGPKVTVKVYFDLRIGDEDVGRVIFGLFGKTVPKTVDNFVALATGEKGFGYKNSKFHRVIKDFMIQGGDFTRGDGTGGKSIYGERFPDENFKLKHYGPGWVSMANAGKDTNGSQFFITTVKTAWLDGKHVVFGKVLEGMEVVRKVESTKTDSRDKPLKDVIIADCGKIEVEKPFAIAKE
Procedure: (§2) Cyclophilin A, B protein carrying a hexahistidine tag (His-Tag) at the C-terminus, were expressed in Escherichia coli and purified. Briefly, cultures of C41(DE3) cells were grown at 37° C. for ˜1 h until the culture reached an optical density of 0.6 at 600 nm, and induced with 1 mM isopropyl β-D-thiogalactoside for 4 h at 37° C. or overnight at 22° C. for cylophilin A and cyclophilin B, respectively. Cell pellets (1 L) were resuspended in a lysis buffer (20 mM NaH2PO4 (pH 7.8), 300 mM NaCl, 7 mM β-mercaptoethanol, 1 mg/ml lysozyme, 0.1 U/μl Desoxyribonuclease and complete protease inhibitor tablets (Roche)). The sonicated cell lysates were clarified by centrifugation at 10 000 g for 45 min at 4° C., chromatographed on a Ni-NTA column and washed with buffer: (20 mM NaH2PO4 (pH7.8), 300 mM NaCl, 50 mM imidazole, 7 mM β-mercaptoethanol, 10% glycerol). The bound protein was eluted in 1 ml fractions with buffer: (20 mM NaH2PO4 (pH7.8), 300 mM NaCl, 250 mM imidazole, 7 mM β-mercaptoethanol, 10% glycerol) and monitored by the Bradford colorimetric assay. The purity of each cyclophilin was determined by Coomassie-stained SDS-PAGE analysis.
as §1

[3] = target: Cyclophilin A (CypA) (Homo sapiens (Human), UniProt P62937); experiment: Cyclophilin PPIase enzymatic assay (chymotrypsin coupled), CypA; type: biochemical; conditions: for IC50: CypA
Cyclophilin A (CypA), sequence (P62937 whole entry): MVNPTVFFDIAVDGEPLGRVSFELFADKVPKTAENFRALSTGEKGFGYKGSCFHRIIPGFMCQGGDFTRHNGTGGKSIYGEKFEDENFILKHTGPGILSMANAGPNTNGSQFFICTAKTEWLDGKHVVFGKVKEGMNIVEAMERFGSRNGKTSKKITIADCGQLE
Procedure: as §2, §1

[4] = tested on: HCV genotype 1b bicistronic replicon in Huh7 cells; experiment: Antiviral activity in the replicon model; type: cell-based; conditions: Hepatitis C virus, Huh-7, 72 h
Procedure: HCV replicon harboring cells were seeded at a low density of 5000 cells per well in 96-well plates. The cells were treated with increasing concentrations of the tested compounds in Dulbecco modified Eagle medium containing 10% fetal bovine serum and 1% DMSO without G418 and cultured for 3 days. Total RNA was extracted using the RNeasy 96 kit (Qiagen). […] HCV RNA levels were measured by means of […]. The results were normalized to GAPDH gene. Each data point represents the average of at least three replicates in cell culture. HCV RNA level reductions after treatment were assessed by comparing the level of HCV RNA in compound-treated cells to that of control cells treated with 1% DMSO.

[5] = Acute toxicity in mice; type: in vivo; conditions: female mice, 1, 10, 50 and 150 mg/kg, one intraperitonal injection
Procedure: The acute toxicity of F684 was evaluated in mice. In this study, female mice (n=3/group) were administered with the negative control (PBS) or F684 (1 mg/kg, 10 mg/kg, 50 mg/kg and 150 mg/kg of body weight dissolved in PBS), one time by intraperitonal injection. At the time of injection, animals were approximately 5 month old and body weights ranged from 27 to 33 g.

[6] = activity test at 100 μM on CypA, read-out: Inhibition (%)
[7] = HCV genotype 1b replicon, Huh7 cells, 3 days, HCV RNA, read-out: EC50 replicon

Cyclophilin D (CypD), sequence (P30405 30-207 K175I limits assumed): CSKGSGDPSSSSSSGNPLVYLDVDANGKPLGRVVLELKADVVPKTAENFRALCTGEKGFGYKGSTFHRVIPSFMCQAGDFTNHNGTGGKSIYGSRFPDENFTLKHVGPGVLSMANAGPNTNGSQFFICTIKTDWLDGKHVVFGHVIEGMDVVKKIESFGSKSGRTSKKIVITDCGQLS

Compound	inhibition at 100 µM [1]	inhibition at 100 µM [2]	inhibition at 100 µM [3, 6]	IC50 [3]	also measured
Nc1ccc(CNC(=O)NCC(=O)N2CCOC(CN3C(=O)c4ccccc4C3=O)C2)cc1 (stereo not shown) [Compound F554, 1-(4-aminobenzyl)-3-(2-(2-((1,3-dioxoisoindolin-2-yl)methyl)morpholino)-2-oxoethyl)urea]	20.9%	70.9%	67.2%	–	IC50 [2]: 24.6 µM
2-(3-(3-acetamidobenzyl)ureido)acetate [Compound F566]	–	–	–	–	Inhibition (%) ([1]; activity test at 100 μM on CypD): 22.7%; Inhibition (%) [2]: 26.5%
CCOC(=O)CNC(=O)NCc1cccc(N)c1 [Compound F549, ethyl 2-(3-(3-aminobenzyl)ureido)acetate]	24.5%	48.9%	14.8%	–	–
Nc1ccc(CNC(=O)NCC(=O)N2CCCC2c2ccccc2Cl)cc1 (stereo not shown) [Compound F673, 1-(4-aminobenzyl)-3-(2-(2-(2-chlorophenyl)pyrrolidin-1-yl)-2-oxoethyl)urea]	–	–	–	3.4 µM	IC50 [1]: 6.2 µM
CCOC(=O)CNC(=O)NCc1ccc(O)c(O)c1 [Compound F548, ethyl 2-(3-(3,4-dihydroxybenzyl)ureido)acetate]	25.5%	20.8%	–	–	–
CSc1ccccc1C1CCCN1C(=O)C(C)NC(=O)NCc1ccc(N)cc1 (stereo not shown) [Compound F714, 1-(4-aminobenzyl)-3-(1-(2-(2-(methylthio)phenyl)pyrrolidin-1-yl)-1-oxopropan-2-yl)urea]	–	–	–	3.1 µM	IC50 [1]: 1.1 µM
CN(C(=O)CNC(=O)NCc1ccc(N)cc1)c1ccccc1 [Compound F557, 2-(3-(4-aminobenzyl)ureido)-N-phenyl-N-methylacetamide]	42.9%	–	63.4%	–	–
CCOC(=O)CNC(=O)NCc1cccc(OC)c1 [Compound F512, ethyl 2-(3-(3-methoxybenzyl)ureido)acetate]	26.5%	16.6%	–	–	–
Nc1ccc(CNC(=O)NCC(=O)N2CCCC2c2cccc3ccccc23)cc1 (stereo not shown) [Compound F671, 1-(4-aminobenzyl)-3-(2-(2-(naphthalen-1-yl)pyrrolidin-1-yl)-2-oxoethyl)urea]	–	–	–	1.5 µM	IC50 [1]: 1.4 µM; EC50 [4, 7]: 4.3 µM
CCOC(=O)CNC(=O)NCc1cccc(F)c1 [Compound F511, ethyl 2-(3-(3-fluorobenzyl)ureido)acetate]	12.9%	–	–	–	–
COc1ccccc1C1CCCN1C(=O)CNC(=O)NCc1ccc(N)cc1 (stereo not shown) [Compound F609, 1-(4-aminobenzyl)-3-(2-(2-(2-methoxyphenyl)pyrrolidin-1-yl)-2-oxoethyl)urea]	–	101%	–	2.8 µM	IC50 [1]: 11.4 µM; IC50 [2]: 1.2 µM; EC50 [4, 7]: 20 µM; inhibition at 100 µM [3]: 100%
CSc1ccccc1C1CCCN1C(=O)CNC(=O)NCc1ccc(N)cc1 (stereo not shown) [Compound F684, 1-(4-aminobenzyl)-3-(2-(2-(2-(methylthio)phenyl)pyrrolidin-1-yl)-2-oxoethyl)urea]	–	–	–	0.37 µM	IC50 [1]: 0.64 µM; acute toxicity [5]: not acutely toxic; body weights, feed consumption, clinical observations or gross organ necropsy vs vehicle control [5]: No differences; survival [5]: All animals survived to scheduled sacrifice; IC50 [2]: 0.65 µM; EC50 ([4]; read-out: EC50 replicon (μM)): 0.8 µM
CCN(OCc1ccccc1)C(=O)CNC(=O)NCc1ccc(N)cc1 [Compound F607]	–	–	–	9 µM	IC50 ([1]; CypD, read-out: CypD IC50): 30 µM; IC50 [2]: 4.8 µM; Inhibition (%) [2]: 95.3%
Nc1ccc(CNC(=O)NCC(=O)NCCc2ccccc2)cc1 [Compound F547, 2-(3-(4-aminobenzyl)ureido)-N-2-phenyl-ethylacetamide]	–	15.2%	22.5%	–	–
COc1ccc(N(C)C(=O)CNC(=O)NCc2ccc(N)cc2)cc1 [Compound F555, 2-(3-(4-aminobenzyl)ureido)-N-4-methoxyphenyl-N-methylacetamide]	26.1%	–	65.1%	–	–
Nc1ccc(CNC(=O)Nc2cnc3sccn3c2=O)cc1 [Compound F608, 1-(4-aminobenzyl)-3-(5-oxo-5H-thiazolo[3,2-a]pyrimidin-6-yl)urea]	–	38.7%	26.3%	–	–
CSc1ccccc1C1CCCN1C(=O)C(CC(C)C)NC(=O)NCc1ccc(N)cc1 (stereo not shown) [Compound F712, 1-(4-aminobenzyl)-3-(4-methyl-1-(2-(2-(methylthio)phenyl)pyrrolidin-1-yl)-1-oxopentan-2-yl)urea]	–	–	–	3.3 µM	IC50 [1]: 3 µM
CCOC(=O)CNC(=O)NCc1ccc(OC)cc1 [Compound F429, ethyl 2-(3-(4-methoxybenzyl)ureido)acetate]	–	–	–	–	inhibition at 1000 µM [1]: 42.1%
Nc1ccc(CNC(=O)NCC(=O)N2CCCCC2C(=O)N2CCCC2)cc1 (stereo not shown) [Compound F542]	–	–	–	–	IC50 [2]: 36.6 µM; Inhibition (%) [2]: 58.5%; Inhibition (%) ([3]; activity test at 100 μM on CypA): 60.1%
CCOC(=O)CNC(=O)NCC1CCNCC1 [Compound F509, ethyl 2-(3-(piperidin-4-ylmethyl)ureido)acetate]	18.3%	–	–	–	–
CCOC(=O)C(Cc1cccc(OCc2ccccc2)c1)NC(=O)NCc1ccc(N)cc1 (stereo not shown) [Compound F611, ethyl 2-(3-(4-aminobenzyl)ureido)-3-(3-(benzyloxy)phenyl)propanoate]	–	73.3%	72.8%	–	–
